From the supplement of paper PMC10307832 come the findings set out here.

The subject of the first assay is NCI-H3122. Kind of assay: relative viability (nuclei count vs DMSO), 5 days (fraction); higher = more cells survive. The conditions noted are these: first compound 2.53 µM. Put shortly: (§1)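 Dosing by pin tool came one day after lung cancer cell lines were seeded in 1536-well plates, using either one drug or a fixed anchor-drug dose plus five library-drug doses (not always all listed) in √10 steps. After 5 days, nuclei were counted on 4× images. Relative viability is treated-well nuclei count divided by vehicle-well nuclei count, and values are medians of duplicate plates.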
`CCCCCCCCCCCC1=C(O)C(=O)C=C(O)C1=O` [Embelin] + COc1cccc2cc(-c3nc([C@H]4CC[C@H](C(=O)O)CC4)n4ncnc(N)c34)[nH]c12 [OSI-027] (partner 0.5 µM) registered a relative viability of 1.31.
On the same count and under the same terms, the figure for `CCCCCCCCCCCC1=C(O)C(=O)C=C(O)C1=O` [Embelin] + Nc1nc2[nH]cc(CCc3ccc(C(=O)N[C@@H](CCC(=O)O)C(=O)O)cc3)c2c(=O)[nH]1 [Pemetrexed] (partner 0.2 µM) is 0.202.

Staying with this assay, now noted: first compound 8 µM.
As to `CCCCCCCCCCCC1=C(O)C(=O)C=C(O)C1=O` [Embelin] + Cc1cc(Nc2cc(N3CCN(C)CC3)nc(Sc3ccc(NC(=O)C4CC4)cc3)n2)n[nH]1 [Tozasertib] (partner 0.1 µM), the relative viability amounted to 0.417.
Take `CCCCCCCCCCCC1=C(O)C(=O)C=C(O)C1=O` [Embelin] + CC(=O)Nc1cccc(-n2c(=O)n(C3CC3)c(=O)c3c(Nc4ccc(I)cc4F)n(C)c(=O)c(C)c32)c1 [Trametinib] (partner 0.02 µM): the relative viability stood at 0.263.
Still for that read-out and setting: next, `CCCCCCCCCCCC1=C(O)C(=O)C=C(O)C1=O` [Embelin] + Nc1ncn([C@H]2C[C@H](O)[C@@H](CO)O2)c(=O)n1 [Decitabine] (partner 2 µM): 0.397; `CCCCCCCCCCCC1=C(O)C(=O)C=C(O)C1=O` [Embelin] + COc1cccc2cc(-c3nc([C@H]4CC[C@H](C(=O)O)CC4)n4ncnc(N)c34)[nH]c12 [OSI-027] (partner 0.5 µM): 0.875; `CCCCCCCCCCCC1=C(O)C(=O)C=C(O)C1=O` [Embelin] + Nc1nc2[nH]cc(CCc3ccc(C(=O)N[C@@H](CCC(=O)O)C(=O)O)cc3)c2c(=O)[nH]1 [Pemetrexed] (partner 0.2 µM): 0.2.

A further assay deals with NCI-H596. The assay is described as above. The conditions noted are these: first compound 0.08 µM. Put shortly: as §1
Consider `CCCCCCCCCCCC1=C(O)C(=O)C=C(O)C1=O` [Embelin] + Cc1cc(Nc2cc(N3CCN(C)CC3)nc(Sc3ccc(NC(=O)C4CC4)cc3)n2)n[nH]1 [Tozasertib] (partner 0.1 µM), for which the relative viability amounted to 0.821.
In turn, `CCCCCCCCCCCC1=C(O)C(=O)C=C(O)C1=O` [Embelin] + CC(=O)Nc1cccc(-n2c(=O)n(C3CC3)c(=O)c3c(Nc4ccc(I)cc4F)n(C)c(=O)c(C)c32)c1 [Trametinib] (partner 0.02 µM) showed a relative viability of 0.832.
Take `CCCCCCCCCCCC1=C(O)C(=O)C=C(O)C1=O` [Embelin] + Nc1ncn([C@H]2C[C@H](O)[C@@H](CO)O2)c(=O)n1 [Decitabine] (partner 2 µM): the relative viability stood at 0.945.
For `CCCCCCCCCCCC1=C(O)C(=O)C=C(O)C1=O` [Embelin] + COc1cccc2cc(-c3nc([C@H]4CC[C@H](C(=O)O)CC4)n4ncnc(N)c34)[nH]c12 [OSI-027] (partner 0.5 µM), the relative viability came to 0.773.
`CCCCCCCCCCCC1=C(O)C(=O)C=C(O)C1=O` [Embelin] + Nc1nc2[nH]cc(CCc3ccc(C(=O)N[C@@H](CCC(=O)O)C(=O)O)cc3)c2c(=O)[nH]1 [Pemetrexed] (partner 0.2 µM) displayed a relative viability of 0.478.

Staying with this assay, now noted: first compound 0.8 µM.
Take `CCCCCCCCCCCC1=C(O)C(=O)C=C(O)C1=O` [Embelin] + Cc1cc(Nc2cc(N3CCN(C)CC3)nc(Sc3ccc(NC(=O)C4CC4)cc3)n2)n[nH]1 [Tozasertib] (partner 0.1 µM): the relative viability is 1.06.
Take `CCCCCCCCCCCC1=C(O)C(=O)C=C(O)C1=O` [Embelin] + CC(=O)Nc1cccc(-n2c(=O)n(C3CC3)c(=O)c3c(Nc4ccc(I)cc4F)n(C)c(=O)c(C)c32)c1 [Trametinib] (partner 0.02 µM): the relative viability was determined as 0.796.
Regarding `CCCCCCCCCCCC1=C(O)C(=O)C=C(O)C1=O` [Embelin] + Nc1ncn([C@H]2C[C@H](O)[C@@H](CO)O2)c(=O)n1 [Decitabine] (partner 2 µM), the relative viability worked out at 0.958.
On to `CCCCCCCCCCCC1=C(O)C(=O)C=C(O)C1=O` [Embelin] + COc1cccc2cc(-c3nc([C@H]4CC[C@H](C(=O)O)CC4)n4ncnc(N)c34)[nH]c12 [OSI-027] (partner 0.5 µM), for which the relative viability is 0.854.
On to `CCCCCCCCCCCC1=C(O)C(=O)C=C(O)C1=O` [Embelin] + Nc1nc2[nH]cc(CCc3ccc(C(=O)N[C@@H](CCC(=O)O)C(=O)O)cc3)c2c(=O)[nH]1 [Pemetrexed] (partner 0.2 µM), for which the relative viability was 0.507.

The same assay, now with this note: first compound 2.53 µM.
On to `CCCCCCCCCCCC1=C(O)C(=O)C=C(O)C1=O` [Embelin] + Cc1cc(Nc2cc(N3CCN(C)CC3)nc(Sc3ccc(NC(=O)C4CC4)cc3)n2)n[nH]1 [Tozasertib] (partner 0.1 µM), for which the relative viability is 0.952.
In turn, `CCCCCCCCCCCC1=C(O)C(=O)C=C(O)C1=O` [Embelin] + CC(=O)Nc1cccc(-n2c(=O)n(C3CC3)c(=O)c3c(Nc4ccc(I)cc4F)n(C)c(=O)c(C)c32)c1 [Trametinib] (partner 0.02 µM) came in with a relative viability of 0.795.
`CCCCCCCCCCCC1=C(O)C(=O)C=C(O)C1=O` [Embelin] + Nc1ncn([C@H]2C[C@H](O)[C@@H](CO)O2)c(=O)n1 [Decitabine] (partner 2 µM) displayed a relative viability of 1.19.
`CCCCCCCCCCCC1=C(O)C(=O)C=C(O)C1=O` [Embelin] + COc1cccc2cc(-c3nc([C@H]4CC[C@H](C(=O)O)CC4)n4ncnc(N)c34)[nH]c12 [OSI-027] (partner 0.5 µM) displayed a relative viability of 0.771.
As to `CCCCCCCCCCCC1=C(O)C(=O)C=C(O)C1=O` [Embelin] + Nc1nc2[nH]cc(CCc3ccc(C(=O)N[C@@H](CCC(=O)O)C(=O)O)cc3)c2c(=O)[nH]1 [Pemetrexed] (partner 0.2 µM), the relative viability came to 0.53.

The assay is the same for the next values; noted with them: first compound 8 µM.
Regarding `CCCCCCCCCCCC1=C(O)C(=O)C=C(O)C1=O` [Embelin] + Cc1cc(Nc2cc(N3CCN(C)CC3)nc(Sc3ccc(NC(=O)C4CC4)cc3)n2)n[nH]1 [Tozasertib] (partner 0.1 µM), the relative viability amounted to 0.939.
Molecule `CCCCCCCCCCCC1=C(O)C(=O)C=C(O)C1=O` [Embelin] + CC(=O)Nc1cccc(-n2c(=O)n(C3CC3)c(=O)c3c(Nc4ccc(I)cc4F)n(C)c(=O)c(C)c32)c1 [Trametinib] (partner 0.02 µM) yielded a relative viability of 0.748.
Turning to `CCCCCCCCCCCC1=C(O)C(=O)C=C(O)C1=O` [Embelin] + Nc1ncn([C@H]2C[C@H](O)[C@@H](CO)O2)c(=O)n1 [Decitabine] (partner 2 µM), the relative viability turned out to be 1.06.
Consider `CCCCCCCCCCCC1=C(O)C(=O)C=C(O)C1=O` [Embelin] + COc1cccc2cc(-c3nc([C@H]4CC[C@H](C(=O)O)CC4)n4ncnc(N)c34)[nH]c12 [OSI-027] (partner 0.5 µM), for which the relative viability was 0.454.
The molecule `CCCCCCCCCCCC1=C(O)C(=O)C=C(O)C1=O` [Embelin] + Nc1nc2[nH]cc(CCc3ccc(C(=O)N[C@@H](CCC(=O)O)C(=O)O)cc3)c2c(=O)[nH]1 [Pemetrexed] (partner 0.2 µM) came in with a relative viability of 0.445.

In the next assay the test system is EKVX. The description is as above. The conditions noted are these: first compound 0.08 µM. Put shortly: as §1
For the molecule `CCCCCCCCCCCC1=C(O)C(=O)C=C(O)C1=O` [Embelin] + Cc1cc(Nc2cc(N3CCN(C)CC3)nc(Sc3ccc(NC(=O)C4CC4)cc3)n2)n[nH]1 [Tozasertib] (partner 0.1 µM), the relative viability stood at 0.387.
In turn, `CCCCCCCCCCCC1=C(O)C(=O)C=C(O)C1=O` [Embelin] + CC(=O)Nc1cccc(-n2c(=O)n(C3CC3)c(=O)c3c(Nc4ccc(I)cc4F)n(C)c(=O)c(C)c32)c1 [Trametinib] (partner 0.02 µM) came in with a relative viability of 0.328.
